Experiments:
[1] = Sensory evaluation of the samples prepared in Example 50 (Example 52); type: in vivo, human; parameters: key to Intensity of Smell: “+” for slight; “++” for moderate; “+++” for very strong
Protocol: The reaction partner (amino acid, carbohydrate source) were dissolved/suspended in the reaction solvent and transferred into a glass beaker filled with sand pre-heated for at least 30 minutes at the reaction temperature in a drying oven. After the planned reaction time, the vials were transferred into ice water. After cooling to room temperature, sensory analysis and analytical characterization was performed.
For evaluation of the taste profile, the samples were tested by a panel of four people. 1 trained taster tasted independently the samples first. The taster was asked to describe the taste profile and score 0-5 according to the increasing sugar likeness, bitterness, aftertaste and lingering taste profiles. The first taster was allowed to re-taste, and then make notes for the sensory attributes perceived. Afterwards, another 3 tasters tasted and the attributes were noted and discussed openly to find a suitable description. In case that more than 1 taster disagreed with the results, the tasting was repeated. In some sensory test results (above), the taste rating was expressed by “+”, which means the intensity of the factors is shown by three levels. “+” for slight, “++” for moderate and “+++” for very strong.

[2] = Sensory analysis of Maillard reaction samples: odor/smell, color, taste (Examples 55-62); type: in vivo, human; conditions: Example 56, negative controls (no carbohydrate source); 10 ml glycerin/water=9:1, 100° C., 40 minutes
Protocol: All reactions were performed in 10 ml glycerin/water=9:1. The reaction partners were dissolved in water and then warmed glycerin (60° C.) was added. The reactions were performed at 100° C. for 40 minutes in a drying oven (sealed vials were positioned in pre-heated sand to increase heat transfer).
All samples were assessed at 22° C. after the Maillard reaction was stopped by placing the sealed vials in an ice bath. After 20 minutes in the ice bath the sealed vials were put in a water bath set to 22° C.
The odor/smell was assessed independently by 3 persons; the final description was agreed after discussion. […] The taste was assessed independently by 3 persons either in the original samples or after appropriate dilution to achieve relevant concentrations of sugars and steviol-glycosides (i.e. 5-9% SE); the final description was agreed after discussion.

[3] = as above; type: in vivo, human
[4] = DPPH radical-scavenging activity (Example 65); type: physicochemical; conditions: iron-III reduction and DPPH radical scavenging, samples kept at 100° C. 0, 2.5 or 5.0 hours
Protocol: 1 mg 1,1-Diphenyl-2-picrylhydrazyl radical (DPPH)/ml ethanol, dilution to assay concentration were prepared in ethanol (40 μg/mL); Calibration samples were prepared with Ascorbic acid in a concentration of 0-10 μg/mL; as a negative control sample, water was used.
Samples in aqueous solution were used as such or diluted with water.
A 0.1 ml sample (or calibration standard) was mixed with 3.9 ml solution of DPPH (100 μMolar) and reacted while protected from light at room temperature for 30 min. Absorbance was determined at 517 nm against ethanol.
10 mM of amino acid and/or 10 mM sugar were dissolved in 10 ml 0.1 mM KH2PO4-buffer, pH=7.8.
The samples were kept at 100° C. in sealed glass vials (Pyrex 15 ml with screw caps) for 0 (before reaction), 2.5 or 5.0 hours. Thereafter the samples were transferred to an ice water bath and cooled down to room temperature. These samples were diluted 1:10 and used for the test assay for anti-oxidant potential.

[5] = the sweeteness depends on the tested concentration compared with sucrose; cited from earlier work
[6] = Table 52.2, 1 ml water + 9 ml Glycerin, 0.67 h, 100° C. (Table 50.2)
[7] = Table 52.5, 1 ml water + 9 ml Glycerin, 2.0 h, 120° C. (Table 50.5)
[8] = Table 52.3, 1 ml water + 9 ml Glycerin, 0.67 h, 100° C. (Table 50.3)
[9] = Table 52.6, Glycerin, 10 ml, 100° C., 40 min (Table 50.6)
[10] = Table 52.7, Glycerin, 10 ml, 1 h, 120° C. (Table 50.7)
[11] = Example 57, before reaction, 10 ml KH2PO4, pH 7.8
[12] = Table 52.1, 1 ml water + 9 ml Glycerin, 1 h, 100° C. (Table 50.1)
[13] = Example 57, after reaction, 10 ml KH2PO4, pH 7.8, 2.5 h, 120° C.

C[C@H](N)C(=O)O [0.1 mMol Ala]
Smell [1, 6]: Agar
Taste [1, 6]: sweet

O=C[C@H](O)[C@H]1OC(=O)[C@@H](O)[C@H]1O [0.1 mMol GlucLac]
Intensity of Smell [1, 7]: +++
Smell [1, 7]: Burnt sugar
Taste [1, 7]: Bitter

NCCCC[C@H](N)C(=O)O [0.1 mMol Lys]
Smell [1, 8]: Popcorn
Taste [1, 8]: Sweet

N[C@@H](Cc1ccccc1)C(=O)O [0.1 mMol Phe]
Taste [1, 6]: sweet
Intensity of Smell [1, 7]: +
Smell [1, 7]: Caramel, burnt
Taste [1, 7]: sweet

C=C1C[C@@]23CC[C@H]4[C@@](C)(CCC[C@@]4(C)C(=O)O[C@@H]4O[C@H](CO)[C@@H](O)[C@H](O)[C@H]4O)[C@@H]2CC[C@]1(O[C@@H]1O[C@H](CO)[C@@H](O)[C@H](O[C@@H]2O[C@H](CO)[C@@H](O)[C@H](O)[C@H]2O)[C@H]1O[C@@H]1O[C@H](CO)[C@@H](O)[C@H](O)[C@H]1O)C3 [0.05 mMol Reb-A]
Smell [1, 6]: neutral/unpleasant
Taste [1, 6]: sweet

N[C@@H](Cc1ccccc1)C(=O)O [3.3 mMol Phe]
Smell ([1]; Table 52.6, Glycerin, 10 ml, 100° C., 5 min (Table 50.6)): Slightly bloomy
Smell ([1]; Table 52.6, Glycerin, 10 ml, 100° C., 10 min (Table 50.6)): flowery/bloomy
Smell ([1]; Table 52.6, Glycerin, 10 ml, 100° C., 20 min (Table 50.6)): flowery/bloomy
Smell [1, 9]: flowery/bloomy
Smell [1, 10]: flowery/bloomy

C[C@H](N)C(=O)O [8.91 mg Ala]
Smell [2]: Neutral, slightly Agar
Taste [2]: Slightly sweet

OC[C@H]1OC(O)[C@H](O)[C@@H](O)[C@@H]1O (stereo partly shown) [9 mg Glucose]
Smell [3, 11]: neutral
Taste [3, 11]: Sweet

OC[C@H]1OC(O)[C@H](O)[C@@H](O)[C@@H]1O (stereo partly shown) [10 mMol Glu]
Smell [1, 9]: Slightly Caramel
Smell [1, 10]: Slightly Caramel

N[C@@H](CO)C(=O)O [10.5 mg Ser]
Smell [2]: Lotus flower
Taste [2]: Slightly sweet

O=C(O)[C@@H]1CCCN1 [11.5 mg Pro]
Taste [2]: Slightly sweet

C[C@@H](O)[C@H](N)C(=O)O [11.91 mg Thr]
Smell [2]: Vanilla, butter
Taste [2]: Slightly sweet

N[C@@H](CS)C(=O)O [12.1 mg Cys]
Smell [2]: Unpleasant (sulfur)
Taste [2]: Slightly sweet

CC[C@H](C)[C@H](N)C(=O)O [13.11 mg Ile]
Smell [2]: Coffee
Taste [2]: Slightly sweet

NCCCC[C@H](N)C(=O)O [14.7 mg Lys]
Smell [2]: Popcorn
Taste [2]: Slightly sweet

CSCC[C@H](N)C(=O)O [14.9 mg Met]
Smell [2]: Sulfuric
Taste [2]: Slightly sweet

N[C@@H](Cc1ccccc1)C(=O)O [16.5 mg Phe]
Smell [3, 11]: neutral
Taste [3, 11]: No taste
Smell ([3]; Example 58, before reaction, 10 ml KH2PO4, pH 7.8): Neutral
Taste ([3]; Example 58, before reaction, after dilution 1:20): No taste
Smell [2]: Bloomy, caramel
Taste [2]: Slightly sweet

N[C@@H](Cc1ccc(O)cc1)C(=O)O [18.1 mg Tyr]
Smell [2]: neutral
Taste [2]: Slightly sweet

N[C@@H](Cc1c[nH]c2ccccc12)C(=O)O [20.42 mg Try]
Smell [2]: Unpleasant (fecal)
Taste [2]: Slightly sweet

N[C@@H](CCC(=O)O)C(=O)O [167 mMol Glu]
Smell [1, 12]: caramel
Taste [1, 12]: Sweet

O=C[C@H](O)[C@@H](O)[C@H](O)[C@H](O)C(=O)O [Glucuronic Acid]
Smell [3, 13]: burnt bread
Taste [3, 13]: Bitter

O=C1O[C@@H]2[C@@H](O)[C@H](O)O[C@@H]2C1O (stereo partly shown) [Glucuronolactone]
Smell [3, 13]: Burnt sugar
Taste [3, 13]: Bitter

N[C@@H](Cc1ccccc1)C(=O)O [Phe 60 mMol]
Smell [1, 12]: flowery/bloomy-caramel
Taste [1, 12]: Sweet

N[C@H](Cc1ccccc1)C(=O)O [Phe]
Smell [3, 13]: Caramel, burnt
Taste [3, 13]: sweet

C=C1C[C@@]23CC[C@H]4[C@@](C)(CCC[C@@]4(C)C(=O)O[C@@H]4O[C@H](CO)[C@@H](O)[C@H](O)[C@H]4O)[C@@H]2CC[C@]1(O[C@@H]1O[C@H](CO)[C@@H](O)[C@H](O[C@@H]2O[C@H](CO)[C@@H](O)[C@H](O)[C@H]2O)[C@H]1O[C@@H]1O[C@H](CO)[C@@H](O)[C@H](O)[C@H]1O)C3 [Reb-A, Rebaudioside A]
anti-oxidant properties [4]: substantial anti-oxidant properties

O=S(=O)([O-])NC1CCCCC1.[Na+] [sodium cyclamate]
times sweeter than sucrose [5]: about 30 times

OC[C@H]1O[C@H](O[C@]2(CCl)O[C@H](CCl)[C@@H](O)[C@@H]2O)[C@H](O)[C@@H](O)[C@H]1Cl [sucralose]
times sweeter than sucrose [5]: about 600 times

Thaumatin
times sweeter than sucrose [5]: about 2000 times
